In ChEMBL document CHEMBL5505992, “Novel membrane-targeting isoxanthohumol-amine conjugates for combating methicillin-resistant Staphylococcus aureus (MRSA) infections” (Eur J Med Chem, 2024):
Activity calls are given as the source filed them. The rule behind the calls is not given here.

Columns and labels:
[1] = Toxicity in Kunming mouse assessed as survival rate at 40 mg/kg, sc measured after 24 hrs relative to control; assay type: organism-based; conditions: in vivo
[2] = Toxicity in Kunming mouse assessed as swelling in back of skin at 20 mg/kg, sc measured after 24 hrs; assay type: organism-based; conditions: in vivo
[3] = Toxicity in Kunming mouse assessed as effect on kidney at 10 mg/kg, sc measured after 24 hrs by H and E staining based analysis; assay type: organism-based; conditions: in vivo
[4] = Toxicity in Kunming mouse assessed as effect on liver at 10 mg/kg, sc measured after 24 hrs by H and E staining based analysis; assay type: organism-based; conditions: in vivo
Staphylococcus aureus [5] = experiment: Bactericidal activity against Staphylococcus aureus ATCC 29213 assessed as bacterial killing at 4 times MIC measured within 4 to 8 hrs by time kill assay relative to control; assay type: functional; conditions: time 4-8 hrs
Cell membrane [6] = experiment: Disruption of cell membrane in methicillin-resistant Staphylococcus aureus clinical isolate MRSA-16 assessed as increase in intracellular ROS production at upto 64 ug/ml measured after 40 mins by DCFH-DA dye based fluorescence assay; assay type: cell membranes; conditions: dose <= 64.0 µg/ml
Cell membrane [7] = experiment: Induction of cell membrane depolarization in methicillin-resistant Staphylococcus aureus clinical isolate MRSA-16 assessed as fold increase in fluorescence intensity at 32 ug/ml measured every 2 mins for 20 mins by DISC3(5) staining based analysis; assay type: cell membranes; conditions: dose 32.0 µg/ml
Staphylococcus aureus [8] = experiment: Antibacterial activity against methicillin-resistant Staphylococcus aureus infected in Kunming mouse skin infection model assessed as effect on skin abscesses in dorsal surface at 4 mg/kg,sc measured after 24 hrs; assay type: functional, organism-based
[9] = Toxicity in Kunming mouse assessed as effect on spleen at 10 mg/kg, sc measured after 24 hrs by H and E staining based analysis; assay type: organism-based; conditions: in vivo
Staphylococcus aureus [10] = experiment: Antibacterial activity against methicillin-resistant Staphylococcus aureus clinical isolate MRSA-20 measured after 16 to 18 hrs by CLSI method; assay type: functional; conditions: time 16-18 hrs
[11] = Toxicity in Kunming mouse assessed as histopathological abnormalities in spleen at 10 mg/kg, sc measured after 24 hrs by H and E staining based analysis; assay type: organism-based; conditions: in vivo
Cell membrane [12] = experiment: Induction of cell membrane permeability in methicillin-resistant Staphylococcus aureus clinical isolate MRSA-16 assessed as decrease in intact cells (Q3 region) at 4 ug/ml incubated for 2 hrs by SYTO 9 and PI staining based flow cytometry analysis (reference value: 99.07%); assay type: cell membranes; design: scale not given: the % may be the effect or the level left; conditions: dose 4.0 µg/ml
Cell membrane [13] = experiment: Induction of cytoplasmic membrane depolarization in methicillin-resistant Staphylococcus aureus clinical isolate MRSA-16 assessed as fold increase in fluorescence intensity at 32 ug/ml measured every 2 mins for 20 mins by SYTOX green staining based analysis; assay type: cell membranes; conditions: dose 32.0 µg/ml
[14] = Toxicity in Kunming mouse assessed as effect on lung at 4 to 8 mg/kg, sc measured after 24 hrs by H and E staining based analysis; assay type: organism-based; conditions: in vivo, dose 4-8 mg/kg
Staphylococcus aureus [15] = experiment: Antibacterial activity against methicillin-resistant Staphylococcus aureus infected in Kunming mouse skin infection model assessed as effect on skin lesions in subcutaneous tissue at 8 mg/kg,sc measured after 24 hrs; assay type: functional, organism-based
Staphylococcus aureus [16] = experiment: Antibacterial activity against methicillin-resistant Staphylococcus aureus infected in Kunming mouse skin infection model assessed as decrease in bacterial load at 8 mg/kg,sc measured after 24 hrs relative to control; assay type: functional; design: scale not given: the % may be the effect or the level left
Cell membrane [17] = experiment: Disruption of cell membrane in methicillin-resistant Staphylococcus aureus clinical isolate MRSA-16 assessed as fold increase in intracellular ROS production at 64 ug/ml measured after 40 mins by DCFH-DA dye based fluorescence assay; assay type: cell membranes; conditions: dose 64.0 µg/ml
Staphylococcus aureus [18] = experiment: Bactericidal activity against methicillin-resistant Staphylococcus aureus incubated with 3 to 6 hrs compound treated plasma; assay type: functional; conditions: time 3-6 hrs
Cell membrane [19] = experiment: Induction of cell membrane permeability in methicillin-resistant Staphylococcus aureus clinical isolate MRSA-16 assessed as dead cells (Q1 region) at 8 ug/ml incubated for 2 hrs by SYTO 9 and PI staining based flow cytometry analysis (reference value: 0.00%); assay type: cell membranes; conditions: dose 8.0 µg/ml
Cell membrane [20] = experiment: Induction of cytoplasmic membrane depolarization in methicillin-resistant Staphylococcus aureus clinical isolate MRSA-16 assessed as increase in fluorescence intensity at 8 to 32 ug/ml measured every 2 mins for 20 mins by SYTOX green staining based analysis; assay type: cell membranes; conditions: dose 8-32 µg/ml
Staphylococcus aureus [21] = experiment: Induction of morphological changes in methicillin-resistant Staphylococcus aureus clinical isolate MRSA-16 assessed as appearance of uneven cell surface at 16 ug/ml incubated for 4 hrs by SEM analysis; assay type: functional, organism-based; conditions: dose 16.0 µg/ml
[22] = Toxicity in Kunming mouse assessed as effect on liver at 4 to 8 mg/kg, sc measured after 24 hrs by H and E staining based analysis; assay type: organism-based; conditions: in vivo, dose 4-8 mg/kg
Cell membrane [23] = experiment: Disruption of cell membrane integrity in methicillin-resistant Staphylococcus aureus clinical isolate MRSA-16 assessed as increase in red fluorescence at 2 ug/ml incubated for 4 hrs by DAPI and PI staining based confocal microscopy analysis; assay type: cell membranes; conditions: dose 2.0 µg/ml
Cell membrane [24] = experiment: Induction of cell membrane permeability in methicillin-resistant Staphylococcus aureus clinical isolate MRSA-16 assessed as dead cells (Q1 region) at 64 ug/ml incubated for 2 hrs by SYTO 9 and PI staining based flow cytometry analysis (reference value: 0.00%); assay type: cell membranes; conditions: dose 64.0 µg/ml
Escherichia coli = experiment: Antibacterial activity against Escherichia coli ATCC25922 measured after 16 to 18 hrs by CLSI method; assay type: functional; conditions: time 16-18 hrs
Cell membrane [25] = experiment: Induction of cell membrane permeability in methicillin-resistant Staphylococcus aureus clinical isolate MRSA-16 assessed as increase in damaged cells (Q2 region) at 64 ug/ml incubated for 2 hrs by SYTO 9 and PI staining based flow cytometry analysis (reference value: 0.91%); assay type: cell membranes; conditions: dose 64.0 µg/ml
[26] = Cytotoxicity against human L02 cells assessed as cell viability at 32 ug/ml by CCK-8 method relative to control; assay type: toxicity, cell-based; conditions: at 32 µg/mL, read-out: Activity
[27] = Toxicity in Kunming mouse assessed as effect on kidney at 4 to 8 mg/kg, sc measured after 24 hrs by H and E staining based analysis; assay type: organism-based; conditions: in vivo, dose 4-8 mg/kg
Staphylococcus aureus [28] = experiment: Antibacterial activity against methicillin-resistant Staphylococcus aureus infected in Kunming mouse skin infection model assessed as appearance of small number of infiltrated inflammatory cells in skin dermis at 8 mg/kg,sc measured after 24 hrs; assay type: functional, organism-based
Cell membrane [29] = experiment: Induction of cell membrane permeability in methicillin-resistant Staphylococcus aureus clinical isolate MRSA-16 assessed as dead cells (Q1 region) at 4 ug/ml incubated for 2 hrs by SYTO 9 and PI staining based flow cytometry analysis (reference value: 0.00%); assay type: cell membranes; conditions: dose 4.0 µg/ml
Staphylococcus aureus [30] = experiment: Antibacterial activity against methicillin-resistant Staphylococcus aureus clinical isolate MRSA-18 measured after 16 to 18 hrs by CLSI method; assay type: functional; conditions: time 16-18 hrs
[31] = Toxicity in Kunming mouse assessed as histopathological abnormalities in kidney at 4 to 8 mg/kg, sc measured after 24 hrs by H and E staining based analysis; assay type: organism-based; conditions: in vivo, dose 4-8 mg/kg
[32] = Toxicity in Kunming mouse assessed as histopathological abnormalities in liver at 4 to 8 mg/kg, sc measured after 24 hrs by H and E staining based analysis; assay type: organism-based; conditions: in vivo, dose 4-8 mg/kg
[33] = Toxicity in Kunming mouse assessed as histopathological abnormalities in liver at 10 mg/kg, sc measured after 24 hrs by H and E staining based analysis; assay type: organism-based; conditions: in vivo

**Q.** Which survival at 24 h [1] does the source give for CCCC[N+](C)(CCCC)CCCCCOc1ccc(C2CC(=O)c3c(OC)cc(OCCCCC[N+](C)(CCCC)CCCC)c(CC=C(C)C)c3O2)cc1.[I-].[I-] (centres undefined) here?
**A.** Its survival at 24 h is 80%.

**Q.** And the Activity [2]?
**A.** The Activity was “Toxic”.

**Q.** What about the Activity [3] of the same compound?
**A.** The Activity was “Non-Toxic”.

**Q.** And the Activity [4]?
**A.** The Activity was “Non-Toxic”.

**Q.** What about the Activity (Staphylococcus aureus [5]) of the same compound?
**A.** The Activity was 100%.

**Q.** What about the Activity (Cell membrane [6]) of the same compound?
**A.** Its Activity is “Active”.

**Q.** And the fold change (FC) (Cell membrane [7])?
**A.** The fold change (FC) was 4.5.

**Q.** What about the Activity (Staphylococcus aureus [8]) of the same compound?
**A.** Its Activity is “Active”.

**Q.** And the Activity [9]?
**A.** The Activity was “Non-Toxic”.

**Q.** And the MIC (Staphylococcus aureus [10])?
**A.** Its MIC is 0.5 µg/mL.

**Q.** And the Activity [11]?
**A.** The Activity was “Non-Toxic”.

**Q.** And the Activity (Cell membrane [12])?
**A.** The Activity was 60.8%.

**Q.** And the fold change (FC) (Cell membrane [13])?
**A.** The fold change (FC) was 7.

**Q.** What about the Activity [14] of the same compound?
**A.** The Activity was “Non-Toxic”.

**Q.** And the Activity (Staphylococcus aureus [15])?
**A.** Its Activity is “inactive”.

**Q.** What about the Activity (Staphylococcus aureus [16]) of the same compound?
**A.** The Activity was 99.99%.

**Q.** And the fold change (FC) (Cell membrane [17])?
**A.** The fold change (FC) was 4.

**Q.** What about the MBC (Staphylococcus aureus [18]) of the same compound?
**A.** The MBC was 4 µg/mL.

**Q.** And the Activity (Cell membrane [19])?
**A.** Its Activity is 2.94%.

**Q.** What about the Activity (Cell membrane [20]) of the same compound?
**A.** Its Activity is “Active”.

**Q.** What about the Activity (Staphylococcus aureus [21]) of the same compound?
**A.** Its Activity is “Active”.

**Q.** And the Activity [22]?
**A.** Its Activity is “Non-Toxic”.

**Q.** What about the Activity (Cell membrane [23]) of the same compound?
**A.** The Activity was “Active”.

**Q.** What about the Activity (Cell membrane [24]) of the same compound?
**A.** Its Activity is 100%.

**Q.** And the MIC (Escherichia coli)?
**A.** Its MIC is 16 µg/mL.

**Q.** What about the Activity (Cell membrane [25]) of the same compound?
**A.** The Activity was 0.02%.

**Q.** And the viability at 32 ug/ml [26]?
**A.** The viability at 32 ug/ml was 72%.

**Q.** What about the Activity [27] of the same compound?
**A.** The Activity was “Non-Toxic”.

**Q.** And the Activity (Staphylococcus aureus [28])?
**A.** Its Activity is “Active”.

**Q.** What about the Activity (Cell membrane [29]) of the same compound?
**A.** The Activity was 0.44%.

**Q.** And the MIC (Staphylococcus aureus [30])?
**A.** Its MIC is 0.5 µg/mL.

**Q.** And the Activity [31]?
**A.** Its Activity is “Non-Toxic”.

**Q.** What about the Activity [32] of the same compound?
**A.** Its Activity is “Non-Toxic”.

**Q.** What about the Activity [33] of the same compound?
**A.** The Activity was “Non-Toxic”.
